Measured values: patent US12156523B2 (priority 2017, dated 2024)

Key:
Type in all cases: in vivo
rice (cultivar: Jikkoku) = assay: Barrier to growth of rice (phytotoxicity, Example 18); conditions: untreated plant length set as 100; 0.2 mg/mL acetone solution diluted 10-fold, 0.25 mL per 1 mL of soil; first leaf stage; comparative compounds (Table 38)
Protocol: The acetone solutions of each example compound and compounds described in the prior art documents shown in the below-mentioned Table 38 (hereinafter, referred to as compounds of Comparative Examples 1 to 5, respectively) were prepared such that the content thereof became 0.2 mg/mL, and then diluted to 10-fold with water to be subjected to conducting test. 0.25 mL of the diluted solution per 1 mL of the soil was made to be absorbed in the soil. Then, rice seeds (cultivar: Jikkoku) subjected to forcing to germination were seeded in the soil to be cultivated in plant cultivation chambers. The plant length of the rice grown to the first leaf stage was measured, and the ratio of the plant length, relative to the untreated plant length set as 100, (hereinafter, referred to as “the ratio of plant length relative to untreated plant length”) was calculated. The presence or absence of the barrier to growth was determined from the calculated ratio.

Pyricularia oryzae [1] = assay: whole plant or invertebrate; conditions: soil, read-out: Control value (number of lesions at the second leaf)
Pyricularia oryzae [2] = assay: whole plant or invertebrate; conditions: foliar, read-out: Control value (number of lesions at the second leaf)

SMILES	Ratio of plant length relative to untreated plant length (rice (cultivar: Jikkoku))	pest or weed control at 10 µg/mL (Pyricularia oryzae [1]) [%]	pest or weed control at 200 ppm (Pyricularia oryzae [2]) [%]	pest or weed control at 25 ppm (Pyricularia oryzae [2]) [%]
O=C(O)c1cc(Cl)nc(Cl)c1 [Comparative Example 1]	49	–	–	–
C#CCOC(=O)c1cc(Cl)nc(Cl)c1 [Comparative Example 2]	52	–	–	–
O=C(NCCc1ccccc1)c1cc(Cl)nc(Cl)c1 [Comparative Example 3]	45	–	–	–
O=C(COC(=O)c1cc(Cl)nc(Cl)c1)c1ccccc1 [Comparative Example 4]	64	–	–	–
O=C(OCc1ccc(Cl)nc1)c1cc(Cl)nc(Cl)c1 [Comparative Example 5]	66	–	–	–
O=C(Nc1ccc2c(c1)CCCC2)c1cc(F)nc(F)c1F [Example 1-3]	–	≥ 80	≥ 80	–
O=C(Nc1nccs1)c1cc(F)nc(F)c1F [Example 1-18]	–	≥ 80	≥ 80	–
O=C(Nc1cc(Cl)c(Cl)c(Cl)c1)c1cc(F)nc(F)c1F [Example 1-19]	–	≥ 80	–	≥ 80
Cc1ccc(NC(=O)c2cc(F)nc(F)c2F)cc1Cl [Example 1-30]	–	≥ 80	–	≥ 80
O=C(Nc1cccc(Cl)c1)c1cc(F)nc(F)c1F [Example 1-32]	–	≥ 80	≥ 80	–
CCOc1cccc(NC(=O)c2cc(F)nc(F)c2F)c1 [Example 1-38]	–	–	–	≥ 80
CC(C)Oc1cccc(NC(=O)c2cc(F)nc(F)c2F)c1 [Example 1-41]	–	–	–	≥ 80
COc1cccc(NC(=O)c2cc(F)nc(F)c2F)c1 [Example 1-44]	–	≥ 80	–	≥ 80
CC(C)Oc1ccc(NC(=O)c2cc(F)nc(F)c2F)cc1 [Example 1-59]	–	≥ 80	–	≥ 80
COC(=O)CNC(=O)c1cc(F)nc(F)c1F [Example 1-86]	–	≥ 80	≥ 80	–
O=C(NC(=O)c1cc(F)nc(F)c1F)c1ccccc1 [Example 1-93]	–	≥ 80	≥ 80	–
O=C(Nc1ccccc1)c1cc(F)nc(F)c1F [Example 1-98]	–	≥ 80	≥ 80	–
CC(=O)Oc1ccccc1COC(=O)c1cc(F)nc(F)c1F [Example 1-102]	–	≥ 80	≥ 80	–
COc1ccccc1OC(=O)c1cc(F)nc(F)c1F [Example 1-103]	–	≥ 80	≥ 80	–
O=C(OCc1cccc(Cl)c1)c1cc(F)nc(F)c1F [Example 1-105]	–	≥ 80	≥ 80	–
O=C(Oc1ccccc1)c1cc(F)nc(F)c1F [Example 1-129]	–	–	≥ 80	–
COc1ccccc1NC(=O)c1cc(F)nc(F)c1 [Example 1-131]	–	–	≥ 80	–
COc1cc(NC(=O)c2cc(F)nc(F)c2)cc(OC)c1 [Example 1-132]	–	≥ 80	≥ 80	–

SMILES	Ratio of plant length relative to untreated plant length (rice (cultivar: Jikkoku))	pest or weed control at 10 µg/mL (Pyricularia oryzae [1]) [%]	pest or weed control at 200 ppm (Pyricularia oryzae [2]) [%]	pest or weed control at 25 ppm (Pyricularia oryzae [2]) [%]
Cc1ccc(NC(=O)c2cc(F)nc(F)c2)cc1Cl [Example 1-133]	–	≥ 80	≥ 80	–
CC(C)Oc1ccc(NC(=O)c2cc(F)nc(F)c2)cc1 [Example 1-137]	–	≥ 80	≥ 80	–
COc1ccc(NC(=O)c2cc(F)nc(F)c2)cc1 [Example 1-138]	–	–	≥ 80	–
O=C(Nc1ccc(C(F)(F)F)cc1)c1cc(F)nc(F)c1 [Example 1-139]	–	≥ 80	≥ 80	≥ 80
CCc1cccc(NC(=O)c2cc(F)nc(F)c2)c1 [Example 1-168]	–	≥ 80	≥ 80	≥ 80
CCc1ccccc1NC(=O)c1cc(F)nc(F)c1 [Example 1-169]	–	≥ 80	≥ 80	–
Cc1ccc(NC(=O)c2cc(F)nc(F)c2)cc1 [Example 1-170]	–	≥ 80	≥ 80	–
O=C(Nc1ccncc1)c1cc(F)nc(F)c1 [Example 1-172]	–	–	≥ 80	≥ 80
O=C(Nc1ccccc1[N+](=O)[O-])c1cc(F)nc(F)c1 [Example 1-173]	–	≥ 80	≥ 80	–
O=C(OCc1ccc(Cl)nc1)c1cc(F)nc(F)c1 [Example 1-174]	–	≥ 80	≥ 80	≥ 80
O=C(Nc1cccc([N+](=O)[O-])c1)c1cc(F)nc(F)c1 [Example 1-175]	–	≥ 80	≥ 80	–
O=C(Nc1ccc([N+](=O)[O-])cc1)c1cc(F)nc(F)c1 [Example 1-176]	–	≥ 80	≥ 80	–
CC(C)c1ccccc1NC(=O)c1cc(F)nc(F)c1 [Example 1-177]	–	–	≥ 80	–
CC(C)c1cccc(NC(=O)c2cc(F)nc(F)c2)c1 [Example 1-178]	–	≥ 80	≥ 80	–
CC(C)c1ccc(NC(=O)c2cc(F)nc(F)c2)cc1 [Example 1-179]	–	≥ 80	≥ 80	–
CCCCc1ccc(NC(=O)c2cc(F)nc(F)c2)cc1 [Example 1-180]	–	≥ 80	≥ 80	–
O=C(OCc1ccccc1)c1cc(F)nc(F)c1 [Example 1-183]	–	≥ 80	≥ 80	–
COc1cccc(OC(=O)c2cc(F)nc(F)c2)c1 [Example 1-187]	–	≥ 80	≥ 80	–
COC(=O)c1cc(F)nc(F)c1 [Example 1-189]	–	≥ 80	–	–
CC(=O)c1cccc(NC(=O)c2cc(F)nc(F)c2)c1 [Example 1-190]	–	≥ 80	≥ 80	–
O=C(Nc1cccc(C(F)(F)F)c1)c1cc(F)nc(F)c1 [Example 1-191]	–	≥ 80	≥ 80	–
CSc1cccc(NC(=O)c2cc(F)nc(F)c2)c1 [Example 1-192]	–	≥ 80	–	–
O=C(Nc1cccc(O)c1)c1cc(F)nc(F)c1 [Example 1-193]	–	≥ 80	≥ 80	–

SMILES	Ratio of plant length relative to untreated plant length (rice (cultivar: Jikkoku))	pest or weed control at 10 µg/mL (Pyricularia oryzae [1]) [%]	pest or weed control at 200 ppm (Pyricularia oryzae [2]) [%]	pest or weed control at 25 ppm (Pyricularia oryzae [2]) [%]
O=C(Nc1nc2ccccc2s1)c1cc(F)nc(F)c1 [Example 1-194]	–	≥ 80	–	–
COc1ccc(NC(=O)c2cc(F)nc(F)c2)cc1 [Example 1-200]	–	≥ 80	–	–
O=C(Nc1ccc(F)cc1)c1cc(F)nc(F)c1 [Example 1-201]	–	≥ 80	–	–
O=C(Oc1cccc2ccccc12)c1cc(F)nc(F)c1 [Example 1-202]	–	≥ 80	≥ 80	–
O=C(Oc1ccc([N+](=O)[O-])cc1)c1cc(F)nc(F)c1 [Example 1-203]	–	≥ 80	–	–
N#Cc1ccc(OC(=O)c2cc(F)nc(F)c2)cc1 [Example 1-204]	–	≥ 80	≥ 80	–
O=C(OC1CCCCC1)c1cc(F)nc(F)c1 [Example 1-205]	–	≥ 80	–	–
Cc1cccc(OC(=O)c2cc(F)nc(F)c2)c1 [Example 1-206]	–	≥ 80	–	–
O=C(Oc1cccc(F)c1)c1cc(F)nc(F)c1 [Example 1-207]	–	≥ 80	–	–
Cc1ccccc1OC(=O)c1cc(F)nc(F)c1 [Example 1-208]	–	≥ 80	–	–
O=C(Oc1ccccc1Cl)c1cc(F)nc(F)c1 [Example 1-209]	–	≥ 80	–	–
COc1ccccc1OC(=O)c1cc(F)nc(F)c1 [Example 1-210]	–	≥ 80	≥ 80	–
O=C(Oc1ccccc1F)c1cc(F)nc(F)c1 [Example 1-211]	–	≥ 80	–	–
CCCCCCOC(=O)c1cc(F)nc(F)c1 [Example 1-213]	–	≥ 80	–	–
CCCCCCCCCCCCOC(=O)c1cc(F)nc(F)c1 [Example 1-214]	–	≥ 80	–	–
O=C(Oc1ccccc1)c1cc(F)nc(F)c1 [Example 1-218]	–	≥ 80	–	–
Cn1cccc1C(=O)c1cc(F)nc(F)c1F [Example 2-2]	–	≥ 80	–	–
O=C(c1cc(F)nc(F)c1F)N1CCc2ccccc21 [Example 2-4]	–	≥ 80	–	–
O=C1c2ccccc2S(=O)(=O)N1C(=O)c1cc(F)nc(F)c1F [Example 2-5]	–	≥ 80	–	–
CC(=O)OCc1cc(F)nc(F)c1F [Example 3-1]	–	≥ 80	–	–
Fc1cc(C2=NCCO2)c(F)c(F)n1 [Example 4-2]	–	≥ 80	–	–
Fc1cc(C2=NCCCO2)c(F)c(F)n1 [Example 4-3]	–	≥ 80	–	–
Fc1cc(C2=NCCO2)cc(F)n1 [Example 4-4]	–	≥ 80	≥ 80	–
